From patent US8658666B2, “Substituted imidazoquinolines and imidazonaphthyridines” (3M Innovative Properties Company, priority 2005, dated 2014)
Structures can show the parent of a compound that is named as a salt.

Row | SMILES | melting point [°C]
1 | CC(C)Cn1cnc2c(N)nc3ccc(CCCN4CCCC4=O)cc3c21 [Example 10, 1-{3-[4-Amino-1-(2-methylpropyl)-1H-imidazo[4,5-c]quinolin-8-yl]propyl}pyrrolidin-2-one] | 174 to 175
2 | COC(=O)/C=C/c1ccc2c(c1)nc(N)c1ncn(CC(C)(C)O)c12 [Example 15, Methyl(2E)-3-[4-amino-1-(2-hydroxy-2-methylpropyl)-1H-imidazo[4,5-c]quinolin-7-yl]prop-2-enoate] | > 250
3 | COC(=O)CCc1ccc2c(c1)nc(N)c1ncn(CC(C)(C)O)c12 [Example 16, Methyl 3-[4-amino-1-(2-hydroxy-2-methylpropyl)-1H-imidazo[4,5-c]quinolin-7-yl]propanoate] | 201 to 205
4 | CC(C)Cn1cnc2c(N)nc3ccc(CCO)cc3c21 [Example 96, 2-(4-Amino-1-isobutyl-1H-imidazo[4,5-c]quinolin-8-yl)ethanol] | 214 to 216
5 | CC(C)(O)Cn1cnc2c(N)nc3cc(CCC(=O)N4CCOCC4)ccc3c21 [Example 97, 3-[4-Amino-1-(2-hydroxy-2-methylpropyl)-1H-imidazo[4,5-c]quinolin-7-yl]-1-(morpholin-4-yl)propan-1-one] | 217 to 218
6 | CCc1nc2c(N)nc3cc(CCC(=O)N4CCOCC4)ccc3c2n1CC(C)(C)O [Example 98, 3-[4-Amino-2-ethyl-1-(2-hydroxy-2-methylpropyl)-1H-imidazo[4,5-c]quinolin-7-yl]-1-(morpholin-4-yl)propan-1-one] | 237 to 239
7 | CC(C)(O)Cn1cnc2c(N)nc3cc(CCS(C)(=O)=O)ccc3c21 [Example 99] | 269 to 271
8 | COCCc1nc2c(N)nc3ccc(CCC(=O)N4CCOCC4)cc3c2n1CCCN1CCCC1=O [Example 101, 1-{3-[4-Amino-2-(2-methoxyethyl)-8-(3-morpholin-4-yl-3-oxo-propyl)-1H-imidazo[4,5-c]quinolin-1-yl]propyl}pyrrolidin-2-one] | 168 to 170
9 | CCc1nc2c(N)nc3cc(CCC(=O)N4CCSC4)ccc3c2n1CC(C)(C)O [Example 103, 1-{4-Amino-2-ethyl-7-[3-oxo-3-(1,3-thiazolidin-3-yl)propyl]-1H-imidazo[4,5-c]quinolin-1-yl}-2-methylpropan-2-ol] | 210 to 212
10 | COCc1nc2c(N)nc3cc(CCC(=O)N4CCOCC4)ccc3c2n1CC(C)(C)O [Example 106, 1-[4-Amino-2-(methoxymethyl)-7-(3-morpholin-4-yl-3-oxopropyl)-IH-imidazo[4,5-c]quinolin-1-yl]-2-methylpropan-2-ol] | 215 to 217

Next, values leading:

Row | melting point [°C] | SMILES
11 | 220 to 221 | CCOCc1nc2c(N)nc3cc(/C=C/Sc4ccccc4)ccc3c2n1CCCOC(C)C (as salt: hydrobromid) [Example 1, 2-Ethoxymethyl-1-(3-isopropoxypropyl)-7-[(E)-2-(phenylthio)ethenyl]-1H-imidazo[4,5-c]quinolin-4-amine]
12 | 188.5 to 190 | CCOCc1nc2c(N)nc3cc(/C=C/S(=O)(=O)c4ccccc4)ccc3c2n1CCCOC(C)C [Example 2, 2-Ethoxymethyl-1-(3-isopropoxypropyl)-7-[(E)-2-(phenylsulfonyl)ethenyl]-1H-imidazo[4,5-c]quinolin-4-amine]
13 | 214 to 215 | CCOCc1nc2c(N)nc3cc(NC(=O)C(C)C)ccc3c2n1CCCOC(C)C [Example 3, N-[4-Amino-2-ethoxymethyl-1-(3-isopropoxypropyl)-1H-imidazo[4,5-c]quinolin-7-yl]-2-methylpropanamide]
14 | 124 to 127 | CCOCc1nc2c(N)nc3cc(NS(=O)(=O)CC)ccc3c2n1CC(C)(C)O [Example 4, N-[4-Amino-2-ethoxymethyl-1-(2-hydroxy-2-methylpropyl)-1H-imidazo[4,5-c]quinolin-7-yl]ethanesulfonamide]
15 | 122 to 124 | CCOCc1nc2c(N)nc3cc(CCCCNC(C)=O)ccc3c2n1CCCOC(C)C [Example 5, N-{4-[4-Amino-2-ethoxymethyl-1-(3-isopropxypropyl)-1H-imidazo[4,5-c]quinolin-7-yl]butyl}acetamide]
16 | 134.5 to 135.5 | CCCNC(=O)NCCCCc1ccc2c(c1)nc(N)c1nc(COCC)n(CCCOC(C)C)c12 [Example 6, N-{4-[4-Amino-2-ethoxymethyl-1-(3-isopropxypropyl)-1H-imidazo[4,5-c]quinolin-7-yl]butyl}-N′-propylurea]
17 | 166.5 to 167.5 | CCOCc1nc2c(N)nc3cc(S(C)(=O)=O)ccc3c2n1CCCOC [Example 7, 2-Ethoxymethyl-1-(3-methoxypropyl)-7-methylsulfonyl-1H-imidazo[4,5-c]quinolin-4-amine]
18 | 193 to 194 | CCCCc1nc2c(N)nc3cc(/C=C/C(=O)OC)ccc3c2n1CC(C)C [Example 8, Methyl(2E)-3-[4-amino-2-butyl-1-(2-methylpropyl)-1H-imidazo[4,5-c]quinolin-7-yl]prop-2-enoate]
19 | 162 to 163 | CCOCc1nc2c(N)nc3cc(/C=C/C(=O)OC)ccc3c2n1CCCCN1CCCS1(=O)=O [Example 9, Methyl(2E)-3-[4-amino-1-[4-(1,1-dioxidoisothiazolidin-2-yl)butyl]-2-(ethoxymethyl)-1H-imidazo[4,5-c]quinolin-7-yl]prop-2-enoate]
20 | 118 to 119 | CCOCc1nc2c(N)nc3cc(CCC(=O)N4CCOCC4)ccc3c2n1CC(C)(C)O [Example 14, 1-[4-Amino-2-(ethoxymethyl)-7-(3-morpholin-4-yl-3-oxopropyl)-1H-imidazo[4,5-c]quinolin-1-yl]-2-methylpropan-2-ol]
21 | 238 to 240 | CCc1nc2c(N)nc3cc(/C=C/C(=O)OC)ccc3c2n1CC(C)(C)O [Example 17, Methyl(2E)-3-[4-amino-2-ethyl-1-(2-hydroxy-2-methylpropyl)-1H-imidazo[4,5-c]quinolin-7-yl]prop-2-enoate]
22 | 234 to 237 | CCc1nc2c(N)nc3cc(CCC(=O)N(C)C)ccc3c2n1CC(C)(C)O [Example 100, 3-[4-Amino-2-ethyl-1-(2-hydroxy-2-methylpropyl)-1H-imidazo[4,5-c]quinolin-7-yl]-N,N-dimethylpropanamide]
23 | 184 to 186 | COCCc1nc2c(N)nc3ccc(CCC(=O)N(C)C)cc3c2n1CCCN1CCCC1=O [Example 102, 3-{4-Amino-2-(2-methoxyethyl)-1-[3-(2-oxo-pyrrolidin-1-yl)propyl]-1H-imidazo[4,5-c]quinolin-8-yl}-N,N-dimethylpropanamide]
24 | 210 to 212 | COCc1nc2c(N)nc3cc(CCS(C)(=O)=O)ccc3c2n1CC(C)(C)O [Example 104, 1-{4-Amino-2-(methoxymethyl)-7-[2-(methylsulfonyl)ethyl]-1H-imidazo[4,5-c]quinolin-1-yl}-2-methylpropan-2-ol]
25 | 221 to 223 | CC(C)(O)Cn1c(CO)nc2c(N)nc3cc(CCS(C)(=O)=O)ccc3c21 [Example 105, 1-{4-Amino-2-(hydroxymethyl)-7-[2-(methylsulfonyl)ethyl]-1H-imidazo[4,5-c]quinolin-1-yl}-2-methylpropan-2-ol]
